One assay has as its system Las17. To be noted: cell free extracts; ref [24]; cited from earlier work. From the text: The model predicts an extensive interaction surface highlighted in red (Fig. 7E).
Assay [1] deals with Sla1 inhibition of Las17-mediated actin polymerisation. Kind of assay: Pyrene actin assay, alleviation of Sla1 inhibition of Las17-mediated actin polymerisation. The class given is biochemical. To be noted: Arp2/3-independent, activated Sec4, Las17 300 nM, Sla1 SH3 1+2+3 300 nM, 3 µM actin. The procedure:
Fluorometry assays were performed as described previously. 370 μl assays used 3 μM actin as indicated unless otherwise specified. Pyrene-actin was added to 5%, mixed thoroughly, and added to the fluorometry cuvette. Polymerization salts, 10× KME (500 mM KCl, 10 mM MgCl2, 10 mM EGTA, 100 mM Tris-HCl [pH 8.0]) were mixed with fragments or G buffer to give final concentration of 0.5× KME before reading fluorescence. […] Experiments were carried out three separate times with different protein preparations and a representative graph shown.
Liposome binding assays were carried out as described previously. To prepare liposomes 11 μl of a 25 mg/ml solution of Folch fraction-1 was dried under a nitrogen stream. They were washed in chloroform, dried under nitrogen, and further washed with diethyl ether to remove all traces of chloroform before being dried again. […] The pellets were resuspended in 50 µl buffer B and samples were analysed by SDS-PAGE. The proportion of protein in each sample was determined by densitometry of the Coomassie stained gels using a BioRad GelDoc. […] To normalise the data the amount of protein in the supernatant and pellet of each sample was added together to give a value for 100%, and then the % in either the supernatant or pellet alone was calculated. […]

The test system is the same in assay [2]. To be noted: with Arp2/3; ref [24]; cited from earlier work. From the text: As shown in vitro in Fig. 7D, the addition of activated Sec4 to pyrene assays does indeed rel ...
The subject of assay [3] is actin. Kind of assay: TIRF assay, nucleation of actin filaments (filament number). The format is biochemical, rabbit. The procedure: To assess how filaments generated in the presence or absence of Arp2/3 differ, a TIRF-based assay was used. Videos of representative assays are shown in Supplementary Videos 1, 2, 3 and combined in Supplementary Video 4.
(§1) Actin filament growth rate assays. Total Internal Reflection microscopy (TIRFm) was performed using a method modified from[58] using purified rabbit muscle actin and Alexa488 actin (Cytoskeleton, Inc) at a 4:1 ratio. Glass coverslips (Deckgläser) were cleaned using a modification of the method described. Briefly, coverslips were rinsed with gentle agitation in acetone (30 min), then water (5 min) then cleaned in Piranha solution (13 ml concentrated sulphuric acid and 6 ml hydrogen peroxide) for 90 min before rinsing with distilled water and ethanol, drying and coating with 1 mg/ml mPEG silane MW 2000 (Layssan Bio). TIRF reaction buffers 10× KMEI, GOC mixture, and methyl cellulose (400 cP, Sigma) were prepared in advance. 10× KMEI buffer (500 mM KCl, 100 mM Imidazole (pH 7.0), 10 mM MgCl2, 10 mM EGTA (pH 7.0)) was filtered through a sterile syringe-filter device (0.22 μm, Thermo Fisher Scientific) and stored at room temperature. GOC mixture was prepared by dissolving 20 mg of Catalase (Calbiochem) and 100 mg of Glucose-oxidase in 10 ml cold water. […]

For assay [4], the system named is Las17-GFP and Arc15-mCherry. Kind of assay: Dual-reporter lifetimes, Las17-GFP and Arc15-mCherry co-localisation. The format is cell-based, Saccharomyces cerevisiae. To be noted: Las17-GFP / Arc15-mCherry dual-label strain. The procedure:
A size bar for each set of kymographs is shown on the upper right of each set. For (A) and (C) size bar is 100 nm and for B is 200 nm. Error bars are standard deviation. […] The site of interest is labelled in the first two time panels with a white arrow. Exposure 0.5 sec with 1 second time lapse. 120 s recorded. […] Error bars are standard deviation.
Individual spots were analysed for lifetimes and behaviours.
Yeast strains used in this study are listed in Supplementary table 2 and plasmids used in Supplementary table 1. Unless stated otherwise, cells were grown with rotary shaking at 30 °C in liquid YPD medium (1% yeast extract, 2% Bacto-peptone, 2% glucose supplemented with 40 μg/ml adenine) or in synthetic medium (0.67% yeast nitrogen base, 2% glucose) with appropriate supplements. […] DNA cassettes carrying mutations for integration were transformed into KAY1801. Mutant colonies were counter-selected on minimal medium, containing 0.005% uracil and 0.1% 5’-Fluoroorotic Acid (5-FOA; Melford laboratories). Allele exchange, in growing Ura3^-, 5-FOA resistant colonies, was confirmed by PCR and sequencing.
For live-cell imaging, cells expressing tagged proteins were visualised after growing to early log phase. Analysis was carried out at room temperature (22 °C). […] Images were taken simultaneously on separate scientific complementary metal oxide semiconductor (sCMOS) cameras (30 msec exposure). Seven 250 nm sections were acquired every 0.5 sec (241 time points). The stacks were then deconvolved and processed, using SoftWorx. Protein localisation and lifetime was analysed from those projections. Fiji software was used to assemble movies and kymographs, to track and record behaviour of individual spots. Graphs show mean ± SD. […] Where appropriate data was tested for normal distribution using Graphpad Prism software, and then subjected to the appropriate test as described in the methods for each experiment type.

Assay [5] deals with actin. The assay can be described thus: TIRF assay, actin filament growth (elongation) rate. The class given is biochemical, rabbit. To be noted: 0.5 µM actin, vs actin only. The procedure: as §1, with “water. Undissolved particles were cleared by ultracentrifugation and 50 μl aliquots from the upper 90% of the supernatant were stored at −20 °C. 50 ml of 2% methyl cellulose was prepared by dissolving 1 g methylcellulose in 25 ml of Milli-Q water preheated to 65 °C, before adding 25 ml of room temperature water and rotating overnight at 4 °C.” for “water.”

As for Sec4: small GTPase Sec4 (full length), the “direct binding to Las17” value with Las17 is on record as “could bind directly to Las17”. In assay [1], the “relief of Sla1 inhibition of Las17-mediated actin polymerisation” value is recorded as “does indeed relieve inhibition of Las17-mediated actin polymerisation”. Moreover, the “relief of Sla1-SH3 inhibition of Las17-Arp2/3-mediated actin nucleation” value in assay [2] is “alleviated Sla1-SH3 domain inhibition of Las17-Arp2/3-mediated actin nucleation”.

Regarding “Las17: Las17 fragment; residues not stated for TIRF; in b194 Las17 300–422; in b52 full length Las17-GFP in cells”, the “increase in nucleation rate compared to actin alone” value in the assay on actin [3] is on record as “two-three fold”. In the assay on actin [3] (10 minute time point, 500 nM actin, 50 nM Las17, per unit area, errors are standard deviation, actin alone 16.3 ± 2.3), the number of filaments was determined as 42.3 ± 7.0. Moreover, in assay [4], the “duration of co-localization of Las17-GFP and Arc15-mCherry” value was “about 15 seconds”; the “time of Arc15-mCherry alone after Las17 disassembly” value is given as “about 4 s”; the “time of Las17 at the site before Arc15 is recruited” value is recorded as “about 22 s”. For the same substance, the “effect on elongation rate of actin filaments” value in the assay with actin [5] was “sufficient to increase the elongation rate of actin filaments”.
